Laboratory results reported in ChEMBL document CHEMBL1201862, “PubChem BioAssay data set” (2004).
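All cell lines were grown in 96-well plates and treated with compound for 48 hours. GI50: concentration for 50% inhibition of growth.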 Active and inactive are the calls of the source. No stated cut-off is given here; in the data, active = GI50 up to about 1.1 µM and inactive = higher.

Tests used:
Assay in all cases: NCI-60 cell line screen, 48 h
[1] = test system: DMS-273
[2] = test system: HT-29
[3] = test system: A549
[4] = test system: DLD-1
[5] = test system: RPMI-8226
[6] = test system: SNB-19
[7] = test system: SW-620
[8] = test system: UACC-62
[9] = test system: NCI-H23
[10] = test system: U-251
[11] = test system: MCF7
[12] = test system: SNB-75
[13] = test system: RXF 393
[14] = test system: UO-31
[15] = test system: MOLT-4
[16] = test system: HOP-92
[17] = test system: SF-268
[18] = test system: OVCAR-5
[19] = test system: LOX IMVI
[20] = test system: SF-295
[21] = test system: Malme-3M
[22] = test system: KM-20L2
[23] = test system: OVCAR-4
[24] = test system: HOP-62
[25] = test system: NCI/ADR-RES
[26] = test system: NCI-H522
[27] = test system: HCT-15
[28] = test system: OVCAR-8
[29] = test system: CAKI-1
[30] = test system: SK-MEL-5
[31] = test system: A498
[32] = test system: DMS-114
[33] = test system: SK-OV-3
[34] = test system: HCT-116
[35] = test system: OVCAR-3
[36] = test system: UACC-257
[37] = test system: NCI-H226
[38] = test system: HOP-18
[39] = test system: NCI-H460
[40] = test system: COLO 205
[41] = test system: SN12C
[42] = test system: SNB-78
[43] = test system: M19-MEL
[44] = test system: CCRF-CEM
[45] = test system: HL-60
[46] = test system: IGROV-1
[47] = test system: EKVX
[48] = test system: SK-MEL-28
[49] = test system: KM12
[50] = test system: K562
[51] = test system: HCC 2998
[52] = test system: XF498
[53] = test system: SK-MEL-2
[54] = test system: SF-539
[55] = test system: ACHN
[56] = test system: LXFL 529
[57] = test system: TK-10
[58] = test system: SR
[59] = test system: M14

With CCNCCCCNCC the GI50 [1] was > 2550 µM (inactive), the GI50 [2] was > 3750 µM (inactive) and the GI50 [3] was > 3750 µM (inactive). The GI50 [4] was > 3750 µM (inactive), the GI50 [5] was > 3750 µM (inactive) and the GI50 [6] was > 3750 µM (inactive). The GI50 [7] was > 3750 µM (inactive), the GI50 [8] was 2750 µM (inactive) and the GI50 [9] was > 3750 µM (inactive). The GI50 [10] was > 3230 µM (inactive), the GI50 [11] was > 3750 µM (inactive) and the GI50 [12] was > 3750 µM (inactive). For the same compound, the GI50 [13] was > 3260 µM (inactive), the GI50 [14] was > 1230 µM (inactive) and the GI50 [15] was 1390 µM (inactive). The GI50 [16] was > 3750 µM (inactive), the GI50 [17] was > 2990 µM (inactive) and the GI50 [18] was > 3750 µM (inactive). For the same compound, the GI50 [19] was > 3750 µM (inactive), the GI50 [20] was > 3750 µM (inactive) and the GI50 [21] was > 3750 µM (inactive). For the same compound, the GI50 [22] was > 2090 µM (inactive), the GI50 [23] was > 3750 µM (inactive) and the GI50 [24] was > 3750 µM (inactive). The GI50 [25] was > 3750 µM (inactive), the GI50 [26] was > 3240 µM (inactive) and the GI50 [27] was greater than 3750 µM. The GI50 [28] was > 3750 µM (inactive), the GI50 [29] was > 3750 µM (inactive) and the GI50 [30] was > 3750 µM (inactive). The GI50 [31] was > 3750 µM (inactive), the GI50 [32] was > 3600 µM (inactive) and the GI50 [33] was > 3750 µM (inactive). For the same compound, the GI50 [34] was > 2480 µM (inactive), the GI50 [35] was > 3750 µM (inactive) and the GI50 [36] was > 3750 µM (inactive). The GI50 [37] was 2420 µM (inactive), the GI50 [38] was > 37.5 µM (inactive) and the GI50 [39] was 525 µM (inactive). For the same compound, the GI50 [40] was > 3750 µM (inactive), the GI50 [41] was > 2330 µM (inactive) and the GI50 [42] was > 3750 µM (inactive). For the same compound, the GI50 [43] was > 2930 µM (inactive), the GI50 [44] was 1600 µM (inactive) and the GI50 [45] was 736 µM (inactive). The GI50 [46] was > 3750 µM (inactive), the GI50 [47] was > 3750 µM (inactive) and the GI50 [48] was > 3750 µM (inactive). The GI50 [49] was > 3750 µM (inactive), the GI50 [50] was > 3750 µM (inactive) and the GI50 [51] was > 2670 µM (inactive). The GI50 [52] was > 3750 µM (inactive), the GI50 [53] was > 3750 µM (inactive) and the GI50 [54] was > 3750 µM (inactive).
With NCCCCNCCCNC(=O)c1nc(-c2nc(CCN)sc2Cl)sc1Cl the GI50 [1] was 50.4 µM (inactive), the GI50 [2] was > 100 µM (inactive) and the GI50 [3] was 44.5 µM (inactive). The GI50 [4] was 83 µM (inactive), the GI50 [5] was 31.3 µM (inactive) and the GI50 [6] was > 100 µM (inactive). For the same compound, the GI50 [7] was 16.7 µM (inactive), the GI50 [8] was > 100 µM (inactive) and the GI50 [9] was 37.9 µM (inactive). The GI50 [10] was > 100 µM (inactive), the GI50 [12] was 72.9 µM (inactive) and the GI50 [13] was 12.4 µM (inactive). The GI50 [14] was > 100 µM (inactive), the GI50 [55] was > 100 µM (inactive) and the GI50 [56] was 3.46 µM (inactive). For the same compound, the GI50 [15] was > 100 µM (inactive), the GI50 [16] was > 100 µM (inactive) and the GI50 [17] was 6.98 µM (inactive). The GI50 [18] was > 100 µM (inactive), the GI50 [20] was 59.8 µM (inactive) and the GI50 [21] was 58.6 µM (inactive). The GI50 [22] was > 100 µM (inactive), the GI50 [23] was 29.9 µM (inactive) and the GI50 [24] was 59.7 µM (inactive). The GI50 [26] was 21 µM (inactive), the GI50 [27] was greater than 100 µM and the GI50 [28] was > 100 µM (inactive). For the same compound, the GI50 [29] was > 100 µM (inactive), the GI50 [30] was > 100 µM (inactive) and the GI50 [31] was > 100 µM (inactive). The GI50 [32] was 18.8 µM (inactive), the GI50 [33] was > 100 µM (inactive) and the GI50 [34] was 9.48 µM (inactive). For the same compound, the GI50 [35] was > 100 µM (inactive), the GI50 [36] was > 100 µM (inactive) and the GI50 [37] was > 100 µM (inactive). For the same compound, the GI50 [39] was 27.7 µM (inactive), the GI50 [40] was > 100 µM (inactive) and the GI50 [41] was > 100 µM (inactive). For the same compound, the GI50 [42] was > 100 µM (inactive), the GI50 [43] was > 100 µM (inactive) and the GI50 [57] was > 100 µM (inactive). The GI50 [44] was 89.5 µM (inactive), the GI50 [45] was > 100 µM (inactive) and the GI50 [46] was > 100 µM (inactive). For the same compound, the GI50 [58] was 6.87 µM (inactive), the GI50 [47] was > 100 µM (inactive) and the GI50 [48] was 46.5 µM (inactive). For the same compound, the GI50 [49] was 27.5 µM (inactive), the GI50 [50] was 9.35 µM (inactive) and the GI50 [51] was > 100 µM (inactive). For the same compound, the GI50 [59] was 70.1 µM (inactive), the GI50 [52] was > 100 µM (inactive) and the GI50 [54] was 48.8 µM (inactive).
